The subject of assay [1] is MCF-10A. The assay can be described thus: ζ-potential measurement, MCF-10A. Conditions: PBS pH 7.4, 37 °C; more negative after treatment. In kind it is cell-based, human. On the procedure: (§1) First, the ζ-potential of each cell line was measured, and all obtained values were negative (Figure 6A). The Student t-test statistical analysis which was applied distinguished the ζ-potentials of the three studied cell lines with p < 0.05, and the values followed the order of MCF-7 > MDA-MB-231 > MCF-10A. […] represents the relative percentage change of the ζ-potential induced by the studied compounds for the different cell lines. Compound 2 was able to decrease the ζ-potential of the cells with the following ranking: MCF-7 (42%) > MCF-10A (24%) > MDA-MB-231 (16%). For compound 4, the ranking was as follows: MCF-10A (50%) > MDA-MB-231 (46%) > MCF-7 (3%). For compound 5, this was MCF-10A (36%) > MCF-7 (22%) > […].
(§2) The zeta (ζ ξ) potential is the electrostatic potential at the shear plane of a cell, and is related to both its surface charge and the local environment. The ζ-potential of the intact cells and the treated ones was recorded in a cell suspension (0.5 × 10^6 cells/mL) in PBS, using the electrophoretic light-scattering technique on a Zetasizer Nano ZS analyzer (Malvern Instruments, Great Britain). Laser Doppler electrophoresis and velocimetry of cells were used to determine the ζ-potential by measuring the speeds of the cells in PBS upon the application of an electric field. The ζ-potential was calculated based on the Helmholtz–Smoluchowski equation. The measurements were performed in a U-shaped cell with gold-plated electrodes at 37 °C.
(§3) Figure 6 ζ-potential of the investigated cell lines, MCF-10A, MCF-7, and MDA-MB-231 (A). Alterations in the ζ-potential after treatment with compounds 2 (pink), 4 (blue), and 5 (green) (B). All zeta potential values were measured in PBS buffer (137 mM NaCl, 2.7 mM KCl, 8 mM Na2HPO4, and 2 mM KH2PO4; pH 7.4) at 37 °C. Two independent experiments were carried out for each cell line, and each sample was measured 6 times. (*; ***) denote p < 0.05 and p < 0.001 as follows. […]

Assay [2] has as its system MCF-10A. The experiment in a line: MTT anti-proliferative test, MCF-10A. The class given is cell-based. Conditions: Homo sapiens. The source says: The MCF-10A cell line (normal human mammary epithelial cells) served as a reference control.
All breast cell lines (MCF-10A, MCF-7, and MDA-MB-231) were purchased from the American Type Culture Collection—ATCC (Manassas, VA, USA). The MCF-7 and MDA-MB-231 were cultivated in Dulbecco’s modified Eagle’s medium (DMEM) and supplemented with 10% fetal bovine serum (FBS), 1% sodium pyruvate, and 1% MEM non-essential amino acids (NEAA) without antibiotics. The non-tumorigenic breast cell line (MCF-10A) was cultivated in DMEM medium (Sigma-Aldrich, St. Louis, MO, USA) and supplemented with 10% FBS, 1% sodium pyruvate, 1% non-essential amino acids (NEAA), 20 ng/mL human epithelia growth factor (hEGF), 10 μg/mL insulin, and 0.5 μg/mL hydrocortisone without antibiotics. All cell lines were maintained in a humidified atmosphere, with 5% CO2 at 37 °C.
Using the standard MTT-dye reduction assay described by Mosmann, the anti-proliferative activity was tested. The method is based on the metabolism of the tetrazolium salt MTT to insoluble formazan. The formazan absorption was registered using a microplate reader at λ = 540 nm. The measured absorption is an indicator of cell viability and metabolic activity. Anti-proliferative activities were expressed as IC50 values (concentrations required for 50% inhibition of cell growth), calculated using non-linear regression analysis (GraphPad Software, San Diego, CA, USA).
A general note: Formazan colour is commonly taken as a measure of viable cells.

A further assay relates to MDA-MB-231. The assay can be described thus: ζ-potential measurement, MDA-MB-231. The class given is cell-based, human. Conditions: PBS pH 7.4, 37 °C; more negative after treatment. On the procedure:
as §1, §2, §3

In assay [3] the test system is MCF-10A. The experiment in a line: Cell cycle analysis by propidium iodide staining, MCF-10A. The class given is cell-based, human. Conditions: for change of %G1 vs control, MCF-10A / change of %G2 vs control, MCF-10A / change of %S vs control, MCF-10A: control = 100%, 24 h; for %G1, MCF-10A / %G2, MCF-10A / %S, MCF-10A: treated at IC50, 24 h. The method, then:
Our study continued with the examination of the effect of the newly synthesized compounds’ IC50 values on cell cycle progression. The cell aliquots were collected, and FACS analyses were used to detect the effects of cell treatments with the selected compounds (2, 4, and 5). A propidium iodide staining assay was performed.
The changes in the cell cycle distribution in % (G1, S, and G2 phases), based on the graphical figures A–C, were calculated and are given in Table 4.
The cells were trypsinized, suspended in medium + 10% FCS, and centrifuged (1000 rpm, 5 min); then, the pellet was suspended in PBS (1 mL) and fixed with EtOH. The cells were suspended in 2.5 mL pre-cold 70% EtOH and incubated on ice for 15 min. The staining procedure was as follows: the pellet was suspended in a 500 μL PI-solution in PBS and 0.1 mg/mL RNase A, and 0.05% Triton X-100 was added. After incubation for 10 min at 37 °C, the cells were transferred to the flow cytometer and cell fluorescence was measured. The samples were measured by flow cytometry (LSR II, BD Biosciences, Franklin Lakes, NJ, USA) and analyzed using BD FACS DIVA software v. 6.1.3 (BD Biosciences).

The mark [4] stands for this setting: read-out: IC50 MCF-10A (converted).
The mark [5] stands for this setting: read-out: IC50 of Mean ± SD, Anti-Proliferative Activity MCF-10A.

Several values for one entry are separate records, joined by “and”; a condition that tells them apart may be missing. Equal entries are not always repeated. Where two headings read alike, the source gives them in different places.

For orientation: IC50 means the concentration that inhibits the measured activity by half. With `CCOC(=O)c1sc2nc(CC)nc(N)c2c1C` [Compound 4, Ethyl 4-Amino-2-Ethyl-5-Methylthieno[2,3-d]Pyrimidine-6-Carboxylate], the “Δζ/ζ relative change of ζ-potential, MCF-10A” value (“Δζ/ζ relative change … MCF-10A” for short) with MCF-10A [1] was 50.48% and 50%. Also, the IC50 with MCF-10A [2] (setting [4]) is 1400 µM. Besides, the 50% inhibitory concentration (IC50) with MCF-10A [2] (setting [5]) worked out at 367 ± 17.8 µg/mL. In addition, the “Δζ/ζ relative change of ζ-potential, MDA-MB-231” value in the assay on MDA-MB-231 is 45.51% and 46%. In the assay with MCF-10A [3], the “change of %G1 vs control, MCF-10A” value is on record as “+4.9%”; the “change of %G2 vs control, MCF-10A” value is “+15.4%”; the “change of %S vs control, MCF-10A” value is −29.0%; the “%G1, MCF-10A” value is 85.5%. Further, in the assay with MCF-10A [3], the “%G2, MCF-10A” value is 8.108% and the “%S, MCF-10A” value came to 6.53%.

On to `CCOC(=O)Cc1nc(N)c2c(C)c(C(=O)OCC)sc2n1` [Compound 2, Ethyl 4-Amino-2-(2-Ethoxy-2-Oxoethyl)-5-Methylthieno[2,3-d]Pyrimidine-6-Carboxylate], for which, in the assay on MCF-10A [1], the “Δζ/ζ relative change … MCF-10A” value was 24.27% and 24%. Besides, in the assay with MCF-10A [2] (setting [4]), the IC50 was 1700 µM. Besides, in the assay with MCF-10A [2] (setting [5]), the 50% inhibitory concentration (IC50) stood at 503 ± 16.7 µg/mL. Besides, the “Δζ/ζ relative change of ζ-potential, MDA-MB-231” value in the assay on MDA-MB-231 was 16.04% and 16%. Moreover, in the assay with MCF-10A [3], the “change of %G1 vs control, MCF-10A” value was “+5.439%”; the “change of %G2 vs control, MCF-10A” value is −6.42%; the “change of %S vs control, MCF-10A” value was −20.8%; the “%G1, MCF-10A” value is 85.9%. Besides, in the assay on MCF-10A [3], the “%G2, MCF-10A” value is given as 6.55% and the “%S, MCF-10A” value is 7.328%.

With `CCOC(=O)c1sc2nc(C)nc(N)c2c1C` [Compound 5, Ethyl 4-Amino-2,5-Dimethyl-Thieno[2,3-d]Pyrimidine-6-Carboxylate], the “Δζ/ζ relative change … MCF-10A” value in the assay on MCF-10A [1] was 35.94% and 36%. Moreover, in the assay on MCF-10A [2] (setting [4]), the IC50 is 2500 µM. In addition, the IC50 with MCF-10A [2] (setting [5]) stood at 618 ± 29.7 µg/mL. The “Δζ/ζ relative change of ζ-potential, MDA-MB-231” value in the assay on MDA-MB-231 was 23.31% and 23%. In the assay with MCF-10A [3], the “change of %G1 vs control, MCF-10A” value is given as “+5.52%”; the “change of %G2 vs control, MCF-10A” value was “+24.657%”; the “change of %S vs control, MCF-10A” value is on record as −13.9%; the “%G1, MCF-10A” value is recorded as 86%. Moreover, in the assay with MCF-10A [3], the “%G2, MCF-10A” value was 8.72% and the “%S, MCF-10A” value came to 7.92%.

For the origin of these results see publication PMC10489817, “2-Alkyl-Substituted-4-Amino-Thieno[2,3-d]Pyrimidines: Anti-Proliferative Properties to In Vitro Breast Cancer Models” (Molecules, 2023).
